Assay [1] addresses T1, cytoplasmic kinase domain of human IGF-1R (IGF-1R-GST) (Homo sapiens, UniProt P08069).
T1 construct: cytoplasmic kinase domain of human IGF-1R (amino acids 964-1370); GST (glutathione-S-transferase); made in house; host or cells: High Five insect cells (Invitrogen)
Description: Insulin-like growth factor-1 receptor (IGF-1R) kinase assay (DELFIA). The conditions noted are these: IGF-1R-GST kinase activity, read-out: IGF1R IC50. Format: biochemical. Put shortly: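 GST-tagged IGF-1R cytoplasmic kinase domain phosphorylates pEY with biotinylated pEY for 40 min at RT; EDTA stop. Product captured on streptavidin, detected with europium anti-phosphotyrosine antibody by DELFIA time-resolved fluorescence; IC50 from inhibition curves.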

The test system of assay [2] is TC-71 (Ewing's sarcoma) cells. The assay can be described thus: Cell proliferation assay, TC-71 (Alamar Blue). The assay is classed as cell-based. The note with it: 72 h with compound, EC50 ranges as class symbols. The protocol: Cell Proliferation Assays
Compounds were tested for their anti-proliferative effects in the TC-71 (Ewing's sarcoma) and HCT 116 (colorectal carcinoma) cancer cell lines in vitro. Published scientific data has described that interference with the Insulin-like Growth Factor-1 Receptor (IGF-1R) signaling pathway reduces the proliferation of TC-71 cells. Therefore TC-71 cells served as a positive control cell line for monitoring the activity of compounds against IGF-1R-mediated cell proliferation. […] Therefore the HCT 116 cell line served as a negative control.
2000 TC-71 cells or 1000 HCT 116 cells were seeded per well in 180 μL IMDM+10% foetal calf serum (FCS)+ penicillin/streptomycin into 96-well microtitre plates. The plates were placed in a cell culture incubator (37° C. in a humidified atmosphere of […]/5 CO2) overnight. The following day, serial dilutions of compounds, prepared in duplicates, were transferred onto the cell layers (controls without compound). The cells were cultivated for a further 72 h in the cell culture incubator. 20 μL of Alamar Blue™ (Serotec Ltd, Düsseldorf, Germany) was added to each well and the plates incubated for 7 h in the cell culture incubator. Fluorescence (extinction wavelength of 544 nm and emission at 590 nm) was then measured and the normalized data fitted by iterative calculation with a sigmoidal curve analysis program (Graph Pad Prism) with a variable Hill slope to determine the IC50 values.
A general note: Alamar Blue is a resazurin reagent that responds to reducing activity.

T1 sequence (P08069 964-1367 limits assumed): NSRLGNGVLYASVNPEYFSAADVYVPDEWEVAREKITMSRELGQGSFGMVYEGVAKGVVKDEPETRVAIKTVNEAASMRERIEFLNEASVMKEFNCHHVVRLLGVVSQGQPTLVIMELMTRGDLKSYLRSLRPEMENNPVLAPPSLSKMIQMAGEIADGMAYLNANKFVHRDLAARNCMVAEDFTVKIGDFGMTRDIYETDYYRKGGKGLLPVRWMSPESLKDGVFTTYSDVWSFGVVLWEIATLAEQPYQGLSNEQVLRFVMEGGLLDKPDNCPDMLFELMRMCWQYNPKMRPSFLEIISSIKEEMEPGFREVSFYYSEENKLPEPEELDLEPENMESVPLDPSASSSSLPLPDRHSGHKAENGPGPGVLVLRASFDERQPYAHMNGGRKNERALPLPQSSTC

For the molecule `CNC(=O)CN1CCCC(c2ccc(Nc3ncc(Cl)c(NCc4cccc5c4C(C)(C)C(=O)N5)n3)cc2)C1` (racemic) [Example I-379], the IC50 in assay [1] amounted to 6 nM. In addition, in assay [2], the EC50 was 50 to 250 nM.

For `COCCN1CCCC(c2ccc(Nc3ncc(Cl)c(NCc4cccc5c4C(C)(C)C(=O)N5)n3)cc2)C1` (racemic) [Example I-380], the IC50 in assay [1] came out at 2 nM. Besides, the EC50 in assay [2] lay in the range of 50 to 250 nM.

Turning to `CC1(C)C(=O)Nc2cccc(CNc3nc(Nc4ccc(C5CCCN(CCO)C5)cc4)ncc3Cl)c21` (racemic) [Example I-381], in assay [1], the IC50 came to 0.9 nM. In addition, in assay [2], the EC50 was 50 to 250 nM.

On to `Cc1cc(C2CCCN(CCO)C2)ccc1Nc1ncc(Cl)c(NCc2cccc3c2C(C)(C)C(=O)N3)n1` (racemic) [Example I-382], for which, in assay [1], the IC50 worked out at 1 nM. Besides, the EC50 in assay [2] was below 50 nM.

In the case of `CNC(=O)CN1CCCC(c2ccc(Nc3ncc(Cl)c(NCc4cccc5c4C(C)(C)C(=O)N5)n3)c(C)c2)C1` (racemic) [Example I-383], the IC50 in assay [1] came out at 2 nM. Besides, in assay [2], the EC50 is 50 to 250 nM.

For `CCc1cc(C2CCCN(CCOC)C2)ccc1Nc1ncc(Cl)c(NCc2cccc3c2C(C)(C)C(=O)N3)n1` (racemic) [Example I-384], in assay [1], the IC50 was 6 nM. Besides, the concentration for a half-maximal effect (EC50) in assay [2] lay in the range of 50 to 250 nM.

As for `COc1cc(N2CCNCC2)ccc1Nc1ncc(C(F)(F)F)c(NCc2cccc3c2C(C)(C)C(=O)N3)n1` [Example I-31], the IC50 in assay [1] is 0.7 nM. The EC50 in assay [2] was below 50 nM.

Regarding `CC1(C)C(=O)Nc2cccc(CNc3nc(Nc4ccc(C5CCN(C(=O)C6CCCC(=O)N6)CC5)cc4)ncc3Br)c21` (stereo not drawn) [Example I-53], the IC50 in assay [1] stood at 6 nM. The EC50 in assay [2] lay in the range of 50 to 250 nM.

Consider `CC(C)(O)C(=O)N1CCC(c2ccc(Nc3ncc(Br)c(NCc4cccc5c4C(C)(C)C(=O)N5)n3)cc2)CC1` [Example I-54], for which, in assay [1], the IC50 was 7 nM. Further, the EC50 in assay [2] lay within 50 to 250 nM.

For `CC1(C)C(=O)Nc2cccc(CNc3nc(Nc4ccc(C5CCN(C(=O)C6CCCN6)CC5)cc4)ncc3Br)c21` (stereo not drawn) [Example I-55], the IC50 in assay [1] turned out to be 1 nM. In assay [2], the EC50 was 50 to 250 nM.

Consider `CC1(C)C(=O)Nc2cccc(CNc3nc(Nc4ccc(C5CCN(C(=O)C6CCN6)CC5)cc4)ncc3Br)c21` (stereo not drawn) [Example I-56], for which the IC50 in assay [1] is 2 nM. The EC50 in assay [2] lay in the range of 250 to 3000 nM.

Take `Cc1cc(C2CCN(C(=O)CN(C)C)CC2)ccc1Nc1ncc(Br)c(NCc2cccc3c2C(C)(C)C(=O)N3)n1` [Example I-57]: the IC50 in assay [1] was 0.76 nM. Besides, the EC50 in assay [2] was below 50 nM.

Turning to `CN(C)CC(=O)N1CCC(n2cc(Nc3ncc(Cl)c(NCc4cccc5c4C(C)(C)C(=O)N5)n3)cn2)CC1` [Example I-66], the IC50 in assay [1] is 6 nM. Moreover, in assay [2], the EC50 is 250 to 3000 nM.

With `Cc1cc(C2CCN(C(=O)N(C)C)CC2)ccc1Nc1ncc(Cl)c(NCc2cccc3c2C(C)(C)C(=O)N3)n1` [Example I-67], the IC50 in assay [1] came to 15 nM. Besides, the EC50 in assay [2] is 50 to 250 nM.

In the case of `COc1cc(C2CCN(C(=O)CN(C)C)CC2)ccc1Nc1ncc(Br)c(NCc2cccc3c2C(C)(C)C(=O)N3)n1` [Example I-68], the IC50 in assay [1] came out at 0.4 nM. Besides, the EC50 in assay [2] was below 50 nM.

For `Cc1cc(C2CCN(C(=O)CN(C)C)CC2)ccc1Nc1ncc(Cl)c(NCc2cccc3c2C(C)(C)C(=O)N3)n1` [Example I-69], the IC50 in assay [1] amounted to 1 nM. Further, the EC50 in assay [2] is below 50 nM.

Consider `COc1cc(N2CCN(C)CC2)ccc1Nc1ncc(Cl)c(NCc2cccc3c2C(C)(C)C(=O)N3)n1` [Example I-97], for which, in assay [1], the IC50 is 2 nM. Moreover, the EC50 in assay [2] was below 50 nM.

In the case of `CN1CCC(n2cc(Nc3ncc(Cl)c(NCc4cccc5c4C(C)(C)C(=O)N5)n3)cn2)CC1` [Example I-102], in assay [1], the IC50 was 4 nM. The EC50 in assay [2] was 50 to 250 nM.

For `Cc1cc(C2CCN(C)CC2)ccc1Nc1ncc(Br)c(NCc2cccc3c2C(C)(C)C(=O)N3)n1` [Example I-103], in assay [1], the IC50 was determined as 0.69 nM. In assay [2], the EC50 was below 50 nM.

Regarding `COc1cc(N2CCN(C)CC2)ccc1Nc1ncc(C(F)(F)F)c(NCc2cccc3c2C(C)(C)C(=O)N3)n1` [Example I-104], in assay [1], the IC50 stood at 0.1 nM. For the same molecule, the EC50 in assay [2] was below 50 nM.

With `COc1cc(N2CCN(C)CC2)ccc1Nc1ncc(C(F)(F)F)c(NCc2cccc3c2C2(CC2)C(=O)N3)n1` [Example I-160], the IC50 in assay [1] was 4 nM. Moreover, the EC50 in assay [2] was in the range of 250 to 3000 nM.

As for `Cc1cc(C2CCN(S(C)(=O)=O)CC2)ccc1Nc1ncc(Cl)c(NCc2cccc3c2C(C)(C)C(=O)N3)n1` [Example I-203], the IC50 in assay [1] is 14 nM. Moreover, the 50% effective concentration (EC50) in assay [2] lay within 250 to 3000 nM.

In the case of `COCCN1CCC(c2ccc(Nc3ncc(Cl)c(NCc4cccc5c4C(C)(C)C(=O)N5)n3)cc2)CC1` [Example I-204], the IC50 in assay [1] stood at 2 nM. In addition, in assay [2], the EC50 was 50 to 250 nM.

As for `COCCN1CCC(c2ccc(Nc3ncc(Br)c(NCc4cccc5c4C(C)(C)C(=O)N5)n3)cc2)CC1` [Example I-208], the IC50 in assay [1] was found to be 0.68 nM. Further, the EC50 in assay [2] fell in the range of 50 to 250 nM.

For the molecule `CC1(C)C(=O)Nc2cccc(CNc3nc(Nc4ccc(C5CCN(CCO)CC5)cc4)ncc3Br)c21` [Example I-209], the IC50 in assay [1] worked out at 1 nM. In addition, the EC50 in assay [2] lay within 50 to 250 nM.

With `CC(C)(O)CN1CCC(c2ccc(Nc3ncc(Br)c(NCc4cccc5c4C(C)(C)C(=O)N5)n3)cc2)CC1` [Example I-210], the IC50 in assay [1] is 0.47 nM. Besides, the EC50 in assay [2] is below 50 nM.

For the molecule `CC(C)(O)CN1CCC(c2ccc(Nc3ncc(Cl)c(NCc4cccc5c4C(C)(C)C(=O)N5)n3)cc2)CC1` [Example I-211], in assay [1], the IC50 amounted to 3 nM. The EC50 in assay [2] lay within 50 to 250 nM.

As for `CC1(C)C(=O)Nc2cccc(CNc3nc(Nc4ccc(C5CCN(CCCF)CC5)cc4)ncc3Br)c21` [Example I-212], the IC50 in assay [1] is 3 nM. Besides, the EC50 in assay [2] was in the range of 50 to 250 nM.

With `CC1(C)C(=O)Nc2cccc(CNc3nc(Nc4ccc(C5CCN(CCCF)CC5)cc4)ncc3Cl)c21` [Example I-213], in assay [1], the 50% inhibitory concentration (IC50) is 4 nM. In addition, the EC50 in assay [2] lay in the range of 50 to 250 nM.

Consider `Cc1cc(C2CCN(CCO)CC2)ccc1Nc1ncc(Br)c(NCc2cccc3c2C(C)(C)C(=O)N3)n1` [Example I-214], for which the IC50 in assay [1] is 0.62 nM. Moreover, the EC50 in assay [2] is below 50 nM.

Regarding `COCCN1CCC(n2cc(Nc3ncc(Cl)c(NCc4cccc5c4C(C)(C)C(=O)N5)n3)cn2)CC1` [Example I-215], the IC50 in assay [1] stood at 12 nM. Further, in assay [2], the EC50 was in the range of 250 to 3000 nM.

On to `Cc1cc(C2CCN(CCS(C)(=O)=O)CC2)ccc1Nc1ncc(Cl)c(NCc2cccc3c2C(C)(C)C(=O)N3)n1` [Example I-216], for which the IC50 in assay [1] amounted to 2 nM. For the same molecule, in assay [2], the EC50 lay within 50 to 250 nM.

As to `Cc1cc(C2CCN(CCO)CC2)ccc1Nc1ncc(Cl)c(NCc2cccc3c2C(C)(C)C(=O)N3)n1` [Example I-217], in assay [1], the IC50 came to 1 nM. The EC50 in assay [2] lay in the range of 50 to 250 nM.

`COCCN1CCC(c2ccc(Nc3ncc(Cl)c(NCc4cccc5c4C(C)(C)C(=O)N5)n3)c(C)c2)CC1` [Example I-218]: the IC50 in assay [1] is 1 nM. Besides, in assay [2], the EC50 is below 50 nM.

For the molecule `Cc1cc(C2CCN(CC(N)=O)CC2)ccc1Nc1ncc(Cl)c(NCc2cccc3c2C(C)(C)C(=O)N3)n1` [Example I-220], the IC50 in assay [1] is 2 nM. Further, in assay [2], the EC50 lay within 50 to 250 nM.

Regarding `COCCN1CCC(c2ccc(Nc3ncc(Br)c(NCc4cccc5c4C(C)(C)C(=O)N5)n3)c(C)c2)CC1` [Example I-221], in assay [1], the IC50 turned out to be 0.98 nM. Besides, the EC50 in assay [2] was below 50 nM.

Broadly, the IC50 is the concentration needed to halve the response being measured. Broadly, the EC50 is the concentration giving half of the maximal effect.

For the origin of these results see US8546443B2, “Benzylic oxindole pyrimidines” (Boehringer Ingelheim International GmbH, priority 2010, dated 2013).
